Results from patent US20250163104A1, “MACROCYCLIC IMMUNOMODULATORS” (priority 2021, published 2025).
Where a SMILES comes first, the peptide text is derived from it. Bridges are numbered along the chain shown (N, C = ends). [ ]: non-standard residue; d: D form. The star is where a group is joined. ξ: configuration not given here. Phe(3-CF3) = N[C@@H](Cc1cccc(C(F)(F)F)c1)C(=O)O; Ala(morpholin-4-yl) = N[C@@H](CN1CCOCC1)C(=O)O; Phe(4-COOH) = N[C@@H](Cc1ccc(C(=O)O)cc1)C(=O)O; Bip = N[C@@H](Cc1ccc(-c2ccccc2)cc1)C(=O)O; Phe(3-OMe) = COc1cccc(C[C@H](N)C(=O)O)c1; Phe(3-Me) = Cc1cccc(C[C@H](N)C(=O)O)c1; Val(3-OH) = CC(C)(O)[C@H](N)C(=O)O; aIle = CC[C@@H](C)[C@H](N)C(=O)O; 3Pal = N[C@@H](Cc1cccnc1)C(=O)O; Cha = N[C@@H](CC1CCCCC1)C(=O)O; Cit = NC(=O)NCCC[C@H](N)C(=O)O; Ile(3ξ) = CCC(C)[C@H](N)C(=O)O; dCha = N[C@H](CC1CCCCC1)C(=O)O; Carboxymethyl = O=C(O)C*; Orn = NCCC[C@H](N)C(=O)O; Dab = NCC[C@H](N)C(=O)O; Abu = CC[C@H](N)C(=O)O; Dap = NC[C@H](N)C(=O)O

Biological target: T1, human PD-1 / PD-L1-Ig binding on Jurkat cell line over-expressing human PD-1 (Jurkat-PD-1) (Homo sapiens, UniProt Q15116)
T1 construct: expressed in transfected cells; host or cells: Jurkat
Assay: Jurkat-PD-1 Cell Binding High-Content Screening Assay (CBA)
Assay type: cell-based
Conditions: Jurkat HPD1_PDL1 IC50, Jurkat-PD-1 cells, PE-labeled PD-L1-Ig 20 nM final
Summary of the method: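 Binding of fluorescent PD-L1-Ig (phycoerythrin linked via the Ig tag, 20 nM final) to PD-1-overexpressing Jurkat cells was imaged after a 2 h, 37° C compound pretreatment and 1 hour ligand incubation.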

T1 sequence (Q15116 25-288): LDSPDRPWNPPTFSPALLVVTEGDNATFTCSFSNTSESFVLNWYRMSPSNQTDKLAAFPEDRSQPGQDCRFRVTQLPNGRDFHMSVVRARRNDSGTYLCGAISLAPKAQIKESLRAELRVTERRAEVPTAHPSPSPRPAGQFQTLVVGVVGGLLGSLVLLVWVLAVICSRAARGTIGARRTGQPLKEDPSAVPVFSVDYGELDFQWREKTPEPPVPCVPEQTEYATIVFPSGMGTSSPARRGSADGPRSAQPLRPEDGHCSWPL

Structure (SMILES) | IC50 [nM]
CC(C)C[C@@H]1NC(=O)[C@H](Cc2c[nH]c3ccccc23)NC(=O)[C@H](CC(=O)O)NC(=O)[C@H](Cc2ccc(OCC(=O)O)cc2)NC(=O)[C@H](CN)NC(=O)CSC[C@@H](C(=O)NCC(N)=O)NC(=O)[C@H](CO)NC(=O)[C@H](C(C)C)NC(=O)[C@H](CC(C)C)NC(=O)[C@H](CC(N)=O)NC(=O)[C@@H](CC(C)C)NC(=O)[C@H](CN)NC(=O)[C@H](C(C)C)NC(=O)[C@H](Cc2ccc(-c3ccccc3)cc2)NC1=O [Compound 1276] ({CH2CO}-[Dap]Y(Carboxymethyl)DWL[Bip]V[Dap][dL]NLVSCG-NH2; thioether N-14) | 8.1
CC(C)C[C@H]1NC(=O)[C@H](CCCN)NC(=O)[C@H](C(C)C)NC(=O)[C@H](Cc2ccc(-c3ccccc3)cc2)NC(=O)[C@H](C(C)C)NC(=O)[C@H](Cc2c[nH]c3ccccc23)NC(=O)[C@H](CC(=O)O)NC(=O)[C@H](Cc2ccc(OCC(=O)O)cc2)NC(=O)[C@H](CN)NC(=O)CSC[C@@H](C(=O)N[C@@H](C)C(=O)N[C@@H](Cc2ccc(OCc3ccccc3)cc2)C(N)=O)NC(=O)[C@H]([C@@H](C)O)NC(=O)[C@H](C(C)C)NC(=O)[C@H](CC2CCCCC2)NC(=O)[C@H](CCN)NC1=O [Compound 1535] | 128

Same assay, conditions: Jurkat-PD-1 cells, PE-labeled PD-L1-Ig 20 nM final; read-out: Jurkat HPD1_PDL1 IC50

IC50 [nM] | Structure (SMILES)
5.5 | CC[C@@H]1NC(=O)[C@H](Cc2c[nH]c3ccccc23)NC(=O)[C@H](CC(=O)O)NC(=O)[C@H](Cc2ccc(OCC(=O)O)cc2)NC(=O)[C@H](CN)NC(=O)CSC[C@@H](C(=O)N[C@@H](C)C(N)=O)NC(=O)[C@H]([C@@H](C)O)NC(=O)[C@H](C(C)C)NC(=O)[C@H](CC2CCCCC2)NC(=O)[C@H](CCN)NC(=O)[C@@H](CC(C)C)NC(=O)[C@H](CCCN)NC(=O)[C@H](CCCNC(N)=O)NC(=O)[C@H](Cc2ccc(-c3ccccc3)cc2)NC1=O [Compound 1356] ({CH2CO}-[Dap]Y(Carboxymethyl)DW[Abu][Bip][Cit][Orn][dL][Dab][Cha]VTCA-NH2; thioether N-14)
27.5 | Cc1cccc(C[C@@H]2NC(=O)[C@H](CC(=O)O)NC(=O)[C@H](Cc3ccc(OCC(=O)O)cc3)NC(=O)[C@H](CCCNC(=N)N)NC(=O)CSC[C@@H](C(N)=O)NC(=O)[C@H]([C@@H](C)O)NC(=O)[C@H](C(C)C)NC(=O)[C@H](CC3CCCCC3)NC(=O)[C@H](CCN)NC(=O)[C@@H](CC(C)C)NC(=O)[C@H](CCCN)NC(=O)[C@H](Cc3ccc(OCC(=O)O)cc3)NC(=O)[C@H](Cc3ccc(-c4ccccc4)cc3)NC(=O)[C@H](Cc3ccc(O)cc3)NC2=O)c1 [Compound 2056] ({CH2CO}-RY(Carboxymethyl)D[Phe(3-Me)]Y[Bip]Y(Carboxymethyl)[Orn][dL][Dab][Cha]VTC-NH2; thioether N-14)
13.2 | CCC(C)[C@@H]1NC(=O)[C@H](Cc2ccc(-c3ccccc3)cc2)NC(=O)[C@H](C(C)C)NC(=O)[C@H](Cc2cc(OC)c(F)cc2F)NC(=O)[C@H](CC(=O)O)NC(=O)[C@H](Cc2ccc(OCC(=O)O)cc2)NC(=O)[C@H](CN)NC(=O)CSC[C@@H](C(=O)N[C@@H](C)C(N)=O)NC(=O)[C@H]([C@@H](C)O)NC(=O)[C@H](C(C)C)NC(=O)[C@H](CC2CCCCC2)NC(=O)[C@H](CCN)NC(=O)[C@@H](CC(C)C)NC(=O)[C@H](CCCN)NC1=O (some centres unmarked) [Compound 2246]
18.6 | COc1cccc(C[C@@H]2NC(=O)[C@H](CC(=O)O)NC(=O)[C@H](Cc3ccc(OCC(=O)O)cc3)NC(=O)[C@H](Cc3ccccc3)NC(=O)CSC[C@@H](C(=O)N[C@@H](C)C(N)=O)NC(=O)[C@H]([C@@H](C)O)NC(=O)[C@H](C(C)C)NC(=O)[C@H](CC3CCCCC3)NC(=O)[C@H](CCN)NC(=O)[C@@H](CC(C)C)NC(=O)[C@H](CCCN)NC(=O)[C@H](CCC(=O)O)NC(=O)[C@H](Cc3ccc(-c4ccccc4)cc3)NC(=O)[C@H](C(C)C)NC2=O)c1 [Compound 1542] ({CH2CO}-FY(Carboxymethyl)D[Phe(3-OMe)]V[Bip]E[Orn][dL][Dab][Cha]VTCA-NH2; thioether N-14)
17.2 | Cc1cccc(C[C@@H]2NC(=O)[C@H](CC(=O)O)NC(=O)[C@H](Cc3ccc(OCC(=O)O)cc3)NC(=O)[C@H](Cc3ccc(OCC(=O)O)cc3)NC(=O)CSC[C@@H](C(=O)N[C@@H](C)C(N)=O)NC(=O)[C@H]([C@@H](C)O)NC(=O)[C@H](C(C)C)NC(=O)[C@H](CC3CCCCC3)NC(=O)[C@H](CCN)NC(=O)[C@@H](CC(C)C)NC(=O)[C@H](CCCN)NC(=O)[C@H](C(C)C)NC(=O)[C@H](Cc3ccc(-c4ccccc4)cc3)NC(=O)[C@H](C(C)C)NC2=O)c1 [Compound 1572]
35 | CC[C@@H](C)[C@@H]1NC(=O)[C@H](Cc2ccc(-c3ccccc3)cc2)NC(=O)[C@H](C(C)C)NC(=O)[C@H](Cc2c[nH]c3ccccc23)NC(=O)[C@H](CC(=O)O)NC(=O)[C@H](Cc2ccc(OCC(=O)O)cc2)NC(=O)[C@H](Cc2ccc(OCC(=O)O)cc2)NC(=O)CSC[C@@H](C(=O)N[C@@H](C)C(N)=O)NC(=O)[C@H]([C@@H](C)O)NC(=O)[C@H](C(C)C)NC(=O)[C@H](CC2CCCCC2)NC(=O)[C@H](CCN)NC(=O)[C@@H](CC2CCCCC2)NC(=O)[C@H](CCCN)NC1=O [Compound 1625] ({CH2CO}-Y(Carboxymethyl)Y(Carboxymethyl)DWV[Bip][aIle][Orn][dCha][Dab][Cha]VTCA-NH2; thioether N-14)

Second part, the compound before the results:

Structure (SMILES) | IC50 [nM]
CCC(C)[C@@H]1NC(=O)[C@H](Cc2ccc(-c3ccccc3)cc2)NC(=O)[C@H](C(C)C)NC(=O)[C@H](Cc2cccc(C)c2)NC(=O)[C@H](CC(=O)O)NC(=O)[C@H](Cc2cccnc2)NC(=O)[C@H](Cc2ccccc2)NC(=O)CSC[C@@H](C(=O)N[C@@H](C)C(N)=O)NC(=O)[C@H]([C@@H](C)O)NC(=O)[C@H](C(C)C)NC(=O)[C@H](CC2CCCCC2)NC(=O)[C@H](CCN)NC(=O)[C@@H](CC(C)C)NC(=O)[C@H](CCCN)NC1=O (stereo partly drawn) [Compound 2234] ({CH2CO}-F[3Pal]D[Phe(3-Me)]V[Bip][Ile(3ξ)][Orn][dL][Dab][Cha]VTCA-NH2; thioether N-14) | 70.8
CC(C)C[C@H]1NC(=O)[C@H](CCCN)NC(=O)[C@H](Cc2ccc(C(=O)O)cc2)NC(=O)[C@H](Cc2ccc(-c3ccccc3)cc2)NC(=O)[C@H](Cc2ccc(C(=O)O)cc2)NC(=O)[C@H](Cc2cccc(C(F)(F)F)c2)NC(=O)[C@H](CC(=O)O)NC(=O)[C@H](Cc2ccc(C(=O)O)cc2)NC(=O)[C@H](CN2CCOCC2)NC(=O)CSC[C@@H](C(=O)N[C@@H](CCN)C(N)=O)NC(=O)[C@H](CO)NC(=O)[C@H](C(C)(C)O)NC(=O)[C@H](CC2CCCCC2)NC(=O)[C@H](CCN)NC1=O [Example 2710] ({CH2CO}-[Ala(morpholin-4-yl)][Phe(4-COOH)]D[Phe(3-CF3)][Phe(4-COOH)][Bip][Phe(4-COOH)][Orn][dL][Dab][Cha][Val(3-OH)]SC[Dab]-NH2; thioether N-14) | 1.2
CC(C)C[C@H]1NC(=O)[C@H](CCCN)NC(=O)[C@H](C(C)C)NC(=O)[C@H](Cc2ccc(-c3ccccc3)cc2)NC(=O)[C@H](C(C)C)NC(=O)[C@H](Cc2c[nH]c3ccccc23)NC(=O)[C@H](CC(=O)O)NC(=O)[C@H](Cc2ccc(C(=O)O)cc2)NC(=O)[C@H](Cc2ccc(OCC(=O)O)cc2)NC(=O)CSC[C@@H](C(=O)N[C@@H](C)C(N)=O)NC(=O)[C@H]([C@@H](C)O)NC(=O)[C@H](C(C)C)NC(=O)[C@H](Cc2ccc(O)cc2)NC(=O)[C@H](CCN)NC1=O [Compound 1682] ({CH2CO}-Y(Carboxymethyl)[Phe(4-COOH)]DWV[Bip]V[Orn][dL][Dab]YVTCA-NH2; thioether N-14) | 66
